The numbers were not newly measured in patent publication US20230372264A1 (priority 2020, published 2023), which cites them from elsewhere.

One data set relates to Candida sp. The note with it: reference [27].
The subject of a further data set is Staphylococcus aureus. The note with it: reference [27].
The next data set has as its system Streptococcus spp. The note with it: reference [27].
The test system of data set [1] is human breast cancer cells. The note with it: reference [16].
A further data set relates to SARS-CoV. The note with it: reference [9].
Data set [2] concerns ACE2 receptor bonds with viral S-glycoproteins. The note with it: in vitro cellular models, cholesterol depletion, reference [5].

Regarding `OCCc1ccc(O)c(O)c1` [hydroxytyrosol, 4-(2-hydroxyethyl)-1,2-dihydroxybenzene], the growth reduction in the data set on Candida sp., in the data set on Staphylococcus aureus and in the data set with Streptococcus spp. was 40% each time.

For the molecule hydroxypropyl-α-cyclodextrin, the “effectiveness against migration vs hydroxypropyl-β-cyclodextrin” value in data set [1] is recorded as “twice as effective”.

As for methyl-β-cyclodextrin [MβCD], the “inhibition of SARS-CoV infectivity” value with SARS-CoV is 90%. Moreover, the “number of ACE2 receptor bonds with viral S-glycoproteins” value in data set [2] was “halves”.
